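Compound exposure: 48 hours, 5 concentrations, 96-well plates. The concentration for 50% growth inhibition is given as GI50.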 The source made the active and inactive calls. Cut-off read from the data, not from the text of the source: active = GI50 up to about 1.1 µM and inactive = higher.
Assays:
Test in all cases: growth of human tumour cells (NCI), 48 h
[1] = system: HCT-116
[2] = system: HL-60
[3] = system: KM12
[4] = system: 786-0
[5] = system: NCI-H522
[6] = system: NCI-H23
[7] = system: HCC 2998
[8] = system: U-251
[9] = system: SF-268
[10] = system: SK-OV-3
[11] = system: OVCAR-4
[12] = system: UACC-62
[13] = system: CCRF-CEM
[14] = system: UACC-257
[15] = system: A549
[16] = system: RXF 393
[17] = system: SK-MEL-5
[18] = system: CAKI-1

Measured: GI50

Cc1ncc(CCl)c2c1OC(C)(C)OC2
inactive: [1] 25.1 µM | [2] 27 µM | [3] 37.5 µM | [4] 20.8 µM | [5] 17 µM | [6] > 100 µM | [7] > 100 µM | [8] 14.4 µM | [9] 22.8 µM | [10] > 100 µM | [11] 15.1 µM | [12] > 100 µM | [13] 47.8 µM | [14] 77.1 µM | [15] > 100 µM | [16] 16 µM

Cn1sc2ccccc2c1=S
inactive: [1] 3.21 µM | [2] 5.47 µM | [3] 12 µM | [4] 3.85 µM | [5] 3.16 µM | [17] 12.4 µM | [6] 11.7 µM | [7] 28.2 µM | [8] 4.01 µM | [9] 3.5 µM | [10] 36.1 µM | [11] 8.2 µM | [12] 5.78 µM | [18] 11.7 µM | [13] 2.44 µM | [14] 8.63 µM | [15] 13.9 µM | [16] 3.08 µM

CCOC(=O)c1c(-c2ccc(O)c(OC)c2)c(C#N)c(=S)n(C2OC(CO)C(O)C(O)C2O)c1-c1ccccc1 (stereo not given)
inactive: [1] > 100 µM | [2] > 100 µM | [3] > 100 µM | [4] > 100 µM | [17] > 100 µM | [6] > 100 µM | [7] > 100 µM | [8] > 100 µM | [9] > 100 µM | [11] > 100 µM | [12] > 100 µM | [18] > 100 µM | [13] > 100 µM | [14] > 100 µM | [15] > 100 µM | [16] > 100 µM

COc1ccc(C(=O)c2c(C(C(=O)c3ccc(OC)cc3)C(=O)c3ccc(OC)cc3)n(C(=O)c3ccc(OC)cc3)c3ccccc23)cc1
inactive: [1] > 100 µM | [2] > 100 µM | [3] > 100 µM | [4] > 100 µM | [5] > 100 µM | [17] > 100 µM | [6] > 100 µM | [7] > 100 µM | [8] > 100 µM | [9] > 100 µM | [10] > 100 µM | [11] > 100 µM | [12] > 100 µM | [18] > 100 µM | [13] > 100 µM | [15] > 100 µM | [16] > 100 µM

CC(C)=CCC/C(C)=C/Cc1c(O)ccc2c1[nH]c1cc(O)c(C)cc12
inactive: [1] 13.3 µM | [2] 7.53 µM | [3] 10.6 µM | [4] 9.48 µM | [5] 7.96 µM | [17] 16.6 µM | [7] 11 µM | [8] 10 µM | [9] 10.7 µM | [10] 24.2 µM | [11] 3.78 µM | [12] 16.9 µM | [13] 7.55 µM | [15] 8.87 µM | [16] 14 µM

Cc1cc(NS(=O)(=O)c2ccc(NC(=O)c3cccn4c(=O)c5ccccc5nc34)cc2)no1
inactive: [1] > 100 µM | [2] > 100 µM | [3] > 100 µM | [4] > 100 µM | [5] > 100 µM | [17] > 100 µM | [6] > 100 µM | [7] > 100 µM | [8] > 100 µM | [9] > 100 µM | [10] > 100 µM | [11] > 100 µM | [12] > 100 µM | [18] > 100 µM | [13] > 100 µM | [14] > 100 µM | [15] > 100 µM | [16] > 100 µM

COc1cc(O)c(C(=O)C2Cc3ccccc32)c(OC)c1 (stereo not given)
inactive: [1] 38.6 µM | [2] 13 µM | [3] 32.4 µM | [4] 44.2 µM | [5] 32.7 µM | [17] 29.6 µM | [7] 49.1 µM | [8] 64.3 µM | [9] 67.8 µM | [10] > 100 µM | [11] 64.4 µM | [12] 57.5 µM | [18] 25.6 µM | [13] 19.8 µM | [14] 47.3 µM | [15] 35.8 µM | [16] 20.3 µM

CC/C=C/c1cc2c(c3[nH]ccc13)[C@@H](C)CC2C.CC/C=C/c1cc2cc[nH]c2c2c1C(C)C[C@@H]2C.CCc1cc2c(c3[nH]ccc13)[C@@H](C)CC2C (stereo not given in full)
inactive: [1] 18.5 µM | [2] 18.3 µM | [3] 16.8 µM | [4] 17 µM | [5] 15.6 µM | [6] 17.4 µM | [7] 3.08 µM | [8] 18 µM | [9] 15.5 µM | [11] 15.4 µM | [18] 15.1 µM | [14] 16 µM | [15] 21.4 µM | [16] 12.2 µM

CCOC(=O)C(C)Sc1nnc(COc2ccccc2OC)n1-c1ccccc1 (stereo not given)
inactive: [1] 80.7 µM | [2] 32.8 µM | [3] > 100 µM | [4] > 100 µM | [5] 42 µM | [17] > 100 µM | [6] > 100 µM | [7] 29.1 µM | [8] > 100 µM | [9] > 100 µM | [10] > 100 µM | [11] > 100 µM | [12] > 100 µM | [18] > 100 µM | [13] 53.7 µM | [14] > 100 µM | [15] > 100 µM | [16] 52.4 µM

Nn1c(-c2ccccc2Cl)nc2ccccc2c1=O
inactive: [1] > 100 µM | [2] > 100 µM | [3] > 100 µM | [4] > 100 µM | [5] > 100 µM | [17] > 100 µM | [6] > 100 µM | [7] > 100 µM | [8] > 100 µM | [9] > 100 µM | [10] > 100 µM | [11] > 100 µM | [12] > 100 µM | [18] > 100 µM | [13] > 100 µM | [14] > 100 µM | [15] > 100 µM

O=c1[nH]c(=O)n(C2OC(CO)C(O)C2O)cc1/N=N/NCc1ccccc1 (stereo not given)
inactive: [1] > 62.2 µM | [2] > 64.3 µM | [3] > 100 µM | [4] > 100 µM | [5] > 100 µM | [17] > 100 µM | [6] > 100 µM | [7] > 100 µM | [8] > 100 µM | [9] > 100 µM | [10] > 100 µM | [11] > 100 µM | [12] > 100 µM | [18] > 100 µM | [13] > 69.5 µM | [14] > 100 µM | [15] > 100 µM | [16] > 79.4 µM

CCCNC(=O)c1cc2ccccc2cc1C(=O)OC
inactive: [1] > 100 µM | [2] > 100 µM | [3] > 100 µM | [4] > 100 µM | [5] > 100 µM | [17] > 100 µM | [6] > 100 µM | [7] > 100 µM | [8] > 100 µM | [9] > 100 µM | [10] > 100 µM | [11] > 100 µM | [12] > 100 µM | [18] > 100 µM | [13] > 100 µM | [14] > 100 µM | [15] > 100 µM

[O-][S+](Cc1cc2c(cc1Br)OCO2)c1ccccc1 (stereo not given)
inactive: [1] 44.9 µM | [2] 21.4 µM | [3] 17.9 µM | [4] 39.1 µM | [5] 21.6 µM | [17] 61.5 µM | [6] 68.2 µM | [7] > 100 µM | [8] 30.3 µM | [9] 59.2 µM | [10] > 100 µM | [11] 67.6 µM | [12] 33.4 µM | [18] 51.5 µM | [13] 19.6 µM | [14] 51.4 µM | [15] > 100 µM | [16] 40.6 µM

CCN(CC)CCCC(C)Nc1c2cc(OC)cc(C)c2nc2c(C)c(Cl)ccc12 (stereo not given)
inactive: [1] 1.86 µM | [2] 2.15 µM | [3] 1.64 µM | [4] 1.64 µM | [5] 1.67 µM | [17] 1.87 µM | [6] 1.48 µM | [7] 1.63 µM | [8] 1.85 µM | [9] 1.97 µM | [10] 1.67 µM | [11] 1.71 µM | [12] 1.79 µM | [18] 1.92 µM | [13] 1.47 µM | [14] 1.81 µM | [15] 1.89 µM | [16] 2.09 µM

CC1CCC2[C@@H](C)COC3O[C@]4(C)CCC1C32OO4 (stereo not given in full)
inactive: [1] > 100 µM | [3] > 100 µM | [4] > 100 µM | [5] > 100 µM | [17] > 100 µM | [6] > 100 µM | [7] > 100 µM | [8] > 100 µM | [9] > 100 µM | [10] > 100 µM | [11] > 100 µM | [12] > 100 µM | [18] > 100 µM | [13] 5.15 µM | [14] > 100 µM | [15] > 100 µM | [16] > 100 µM

COc1ccc2cc3n(c(=O)c2c1)CCc1c-3cc(OC)c(OC)c1OC
inactive: [1] > 100 µM | [2] > 100 µM | [4] > 100 µM | [5] > 100 µM | [17] > 100 µM | [6] > 100 µM | [7] > 100 µM | [8] 50.6 µM | [9] > 100 µM | [10] > 100 µM | [11] > 100 µM | [12] > 100 µM | [18] > 100 µM | [13] > 100 µM | [14] > 100 µM | [15] > 100 µM

— ChEMBL document CHEMBL1201862, “PubChem BioAssay data set” (2004)
